Among the data in PubChem BioAssay (NCI) are GI50 and TGI values, retold here.

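96-well plates; 48 h exposure; 5 concentrations. Endpoints by linear interpolation between flanking doses. Not reached: highest tested concentration assigned. Abbreviation: GI50, concentration required for 50% inhibition of growth. TGI: concentration producing complete growth inhibition.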

Some test systems named below: ACHN renal; COLO 205 colon; HT29 colon; NCI-H226 lung; NCI-H23 lung; NCI-H522 lung; SF-268 CNS; SK-MEL-5 melanoma; SNB-75 CNS; SR leukemia.
What all share (test): NCI-60 cell line screen, 48 h

For `Nc1ccccc1C#C/C=C\C#Cc1ccccc1F`, the GI50 with ACHN renal was 13.5 µM; with COLO 205 colon, 10.3 µM; in the experiment with HT29 colon, 5.06 µM; with NCI-H226 lung, 15.2 µM; in the experiment with NCI-H23 lung, 10.4 µM; with NCI-H522 lung, 6.74 µM. Further, the GI50 in the experiment on SF-268 CNS is 4.23 µM; with SK-MEL-5 melanoma, 2.73 µM. The TGI was 40 µM in the experiment on ACHN renal; 34.1 µM with COLO 205 colon; 47.6 µM in the experiment on HT29 colon; 33.3 µM in the experiment with NCI-H226 lung; 26.6 µM in the experiment on NCI-H23 lung; 23.5 µM in the experiment on NCI-H522 lung. Besides, the TGI in the experiment on SF-268 CNS is 23.3 µM; in the experiment on SK-MEL-5 melanoma it was 12.3 µM.
With `COc1cc2c(cc1OCCCCCn1c3ccccc3c3ccccc31)N=C[C@@H]1CCCN1C2=O`, the GI50 in the experiment with ACHN renal is 1.74 µM; with COLO 205 colon, 2.11 µM; with HT29 colon, 2.08 µM; with NCI-H226 lung it was 2.49 µM; in the experiment on NCI-H23 lung, 2.69 µM; in the experiment on SF-268 CNS, 1.91 µM. The GI50 in the experiment on SK-MEL-5 melanoma was 1.73 µM; in the experiment with SNB-75 CNS, 1.05 µM; in the experiment with SR leukemia, 15.4 µM. In addition, the TGI was found to be 3.34 µM with ACHN renal; 4.57 µM with COLO 205 colon; 5.29 µM in the experiment on HT29 colon; 8.48 µM in the experiment with NCI-H226 lung; 7.04 µM in the experiment on NCI-H23 lung; 3.74 µM in the experiment with SF-268 CNS. For the same compound, the TGI in the experiment with SK-MEL-5 melanoma was 3.15 µM; in the experiment on SNB-75 CNS, 2.58 µM; with SR leukemia, greater than 100 µM.
`COc1ccc(OC)c(/C=N/N=C2\C(=O)Nc3c(Cl)cc(Cl)cc32)c1`: the TGI in the experiment with ACHN renal, with COLO 205 colon, in the experiment with HT29 colon, with NCI-H226 lung, with NCI-H23 lung and in the experiment with SK-MEL-5 melanoma was greater than 100 µM in each case. Further, the TGI with SNB-75 CNS was 19.7 µM; in the experiment on SR leukemia, greater than 100 µM.
In the case of `Cn1c2ccccc2c2[nH]c3ccccc3c(=O)c21`, the TGI in the experiment on ACHN renal, in the experiment with COLO 205 colon, with HT29 colon, with NCI-H226 lung, in the experiment with NCI-H23 lung and in the experiment with SF-268 CNS was greater than 100 µM each time. Further, the TGI in the experiment on SK-MEL-5 melanoma, in the experiment with SNB-75 CNS and with SR leukemia was greater than 100 µM in each case.
Turning to `CCOC(=O)c1cn(CC)c2cc3c(cc2c1=O)SCS3`, the TGI with ACHN renal, in the experiment on COLO 205 colon, in the experiment with HT29 colon, in the experiment on NCI-H23 lung, with NCI-H522 lung and with SF-268 CNS was greater than 100 µM throughout. The TGI in the experiment with SK-MEL-5 melanoma and in the experiment with SNB-75 CNS was greater than 100 µM each time.
As to `O=C(NN1C(=O)CSC12CCC(c1ccccc1)CC2)c1[nH]c2ccc(F)cc2c1-c1ccccc1` (centres undefined), the GI50 was 17.2 µM in the experiment with ACHN renal; 21.2 µM with COLO 205 colon; 14.8 µM with HT29 colon; 19.2 µM with NCI-H226 lung; 17.4 µM in the experiment on NCI-H23 lung; 14.3 µM in the experiment with NCI-H522 lung. Also, the GI50 is 20 µM with SF-268 CNS, 17.5 µM with SK-MEL-5 melanoma and 18 µM in the experiment with SNB-75 CNS. The TGI in the experiment on ACHN renal stood at 31.8 µM; in the experiment with COLO 205 colon, 68.3 µM; in the experiment on HT29 colon, 30.5 µM; with NCI-H226 lung, 38.6 µM; with NCI-H23 lung, 32 µM; with NCI-H522 lung it was 28.2 µM. The figures for the TGI in the experiment on SF-268 CNS, in the experiment with SK-MEL-5 melanoma and in the experiment with SNB-75 CNS were 48.4 µM, 32.3 µM and 36.3 µM, respectively.
For the compound `CC(=O)O[C@H]1CC[C@@]2(C)C(=C/C(=N\[N+](=O)[O-])[C@H]3C4CCC([C@H](C)CCCC(C)C)[C@@]4(C)CCC32)C1` (some centres undefined), the TGI in the experiment with ACHN renal, with COLO 205 colon, with HT29 colon, in the experiment on NCI-H226 lung, with NCI-H23 lung and in the experiment on NCI-H522 lung was greater than 100 µM throughout. Moreover, the TGI in the experiment on SF-268 CNS, in the experiment on SK-MEL-5 melanoma and in the experiment on SNB-75 CNS was greater than 100 µM each time.
Regarding `O=c1[nH]cnc2c1ncn2CCCCO`, the TGI in the experiment on ACHN renal, in the experiment with COLO 205 colon, in the experiment on HT29 colon, in the experiment on NCI-H226 lung, with NCI-H23 lung and with SF-268 CNS was greater than 100 µM each time. Moreover, the TGI in the experiment on SK-MEL-5 melanoma, in the experiment on SNB-75 CNS and with SR leukemia was greater than 100 µM throughout.
For the compound `O=C1/C(=C\c2ccccc2)c2ccccc2N1/N=C\c1ccccc1`, the TGI in the experiment on ACHN renal, with COLO 205 colon, in the experiment on HT29 colon, in the experiment with NCI-H226 lung, in the experiment on NCI-H23 lung and with SF-268 CNS was greater than 100 µM each time. Moreover, the TGI with SK-MEL-5 melanoma and with SNB-75 CNS was greater than 100 µM throughout.
On to `N#CC(C(=O)CCC(=O)Nc1ccc(Cl)c(Cl)c1)c1ccc(Cl)cc1` (centres undefined), for which the TGI with ACHN renal, with HT29 colon, with NCI-H226 lung, in the experiment on NCI-H23 lung, with SF-268 CNS and in the experiment with SK-MEL-5 melanoma was greater than 100 µM in each case. Further, the TGI with SNB-75 CNS was greater than 100 µM.
As for `Cc1cccc(N=C2NC(=O)C(CC(=O)Nc3ccccc3Cl)S2)c1` (centres undefined), the TGI with ACHN renal, with HT29 colon, in the experiment with NCI-H226 lung, in the experiment with NCI-H23 lung, in the experiment on SF-268 CNS and with SK-MEL-5 melanoma was greater than 100 µM throughout. The TGI with SNB-75 CNS and with SR leukemia was greater than 100 µM throughout.
On to `O=C1NN=CN2C(=O)CCC12` (centres undefined), for which the TGI with ACHN renal, in the experiment with COLO 205 colon, with NCI-H23 lung, in the experiment with SF-268 CNS, in the experiment on SK-MEL-5 melanoma and with SNB-75 CNS was greater than 100 µM each time. Also, the TGI with SR leukemia is greater than 100 µM.
As for `O=S(=O)(N/N=C/c1ccc(Cl)cc1Cl)c1ccccc1`, the TGI in the experiment with ACHN renal, in the experiment on COLO 205 colon, in the experiment on HT29 colon, in the experiment with NCI-H226 lung, in the experiment with NCI-H23 lung and with SF-268 CNS was greater than 100 µM each time. For the same compound, the TGI in the experiment on SK-MEL-5 melanoma, in the experiment with SNB-75 CNS and in the experiment on SR leukemia was greater than 100 µM in each case.
